Assay results from ChEMBL document CHEMBL1138861, “Design, synthesis, and biological evaluation of phenylamino-substituted 6,11-dihydro-dibenzo[b,e]oxepin-11-ones and dibenzo[a,d]cycloheptan-5-ones: novel p38 MAP kinase inhibitors” (J Med Chem, 2006).

Key:
[1] = target: Mitogen-activated protein kinase 14 (Homo sapiens, UniProt Q16539)
[2] = target: CYP2D6 (Homo sapiens, UniProt P10635); experiment: Inhibition of CYP2D6 at 10 uM; format: ADME
[3] = target: CYP2C19 (Homo sapiens, UniProt P33261); experiment: Inhibition of CYP2C19 at 10 uM; format: ADME
Sequence of CYP2C19 (P33261 whole entry): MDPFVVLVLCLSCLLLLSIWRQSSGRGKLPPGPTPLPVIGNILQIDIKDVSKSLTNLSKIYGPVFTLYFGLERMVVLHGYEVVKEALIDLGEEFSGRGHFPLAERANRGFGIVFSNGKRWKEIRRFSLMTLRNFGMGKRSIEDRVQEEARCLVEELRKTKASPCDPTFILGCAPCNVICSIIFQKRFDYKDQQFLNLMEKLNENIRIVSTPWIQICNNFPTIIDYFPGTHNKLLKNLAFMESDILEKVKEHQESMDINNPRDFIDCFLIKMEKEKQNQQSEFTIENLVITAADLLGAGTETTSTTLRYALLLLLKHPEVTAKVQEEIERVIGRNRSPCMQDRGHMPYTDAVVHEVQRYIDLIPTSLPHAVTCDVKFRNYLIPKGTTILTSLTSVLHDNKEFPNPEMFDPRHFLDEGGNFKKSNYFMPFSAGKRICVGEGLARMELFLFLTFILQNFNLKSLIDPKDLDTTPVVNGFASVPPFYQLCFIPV

[4] = target: CYP3A4 (Homo sapiens, UniProt P08684); experiment: Inhibition of CYP3A4 at 10 uM; format: ADME
Sequence of CYP3A4 (P08684 whole entry): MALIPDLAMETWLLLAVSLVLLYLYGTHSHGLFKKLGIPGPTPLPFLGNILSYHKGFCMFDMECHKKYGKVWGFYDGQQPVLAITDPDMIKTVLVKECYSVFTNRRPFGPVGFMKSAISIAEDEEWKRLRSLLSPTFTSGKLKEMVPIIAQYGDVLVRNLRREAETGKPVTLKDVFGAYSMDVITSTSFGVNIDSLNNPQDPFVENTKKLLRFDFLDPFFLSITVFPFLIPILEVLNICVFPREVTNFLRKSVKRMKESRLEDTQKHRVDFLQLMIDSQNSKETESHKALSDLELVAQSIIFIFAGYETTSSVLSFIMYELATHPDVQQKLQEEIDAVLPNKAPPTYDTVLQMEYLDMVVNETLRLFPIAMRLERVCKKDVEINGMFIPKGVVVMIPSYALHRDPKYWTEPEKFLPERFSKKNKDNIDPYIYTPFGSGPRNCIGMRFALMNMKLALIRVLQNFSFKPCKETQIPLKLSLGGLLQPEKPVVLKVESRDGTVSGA

Sequence of Mitogen-activated protein kinase 14 (Q16539 whole entry): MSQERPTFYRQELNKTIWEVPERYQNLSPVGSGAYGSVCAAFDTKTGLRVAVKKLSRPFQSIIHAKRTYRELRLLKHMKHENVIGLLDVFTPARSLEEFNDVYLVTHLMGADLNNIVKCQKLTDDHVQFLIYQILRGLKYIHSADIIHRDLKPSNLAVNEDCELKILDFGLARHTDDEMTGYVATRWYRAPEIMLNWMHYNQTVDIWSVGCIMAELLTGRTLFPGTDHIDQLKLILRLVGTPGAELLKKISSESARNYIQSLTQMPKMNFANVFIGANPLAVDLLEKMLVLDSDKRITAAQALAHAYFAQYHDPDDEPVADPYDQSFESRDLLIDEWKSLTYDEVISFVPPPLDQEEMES
Sequence of CYP2D6 (P10635 whole entry): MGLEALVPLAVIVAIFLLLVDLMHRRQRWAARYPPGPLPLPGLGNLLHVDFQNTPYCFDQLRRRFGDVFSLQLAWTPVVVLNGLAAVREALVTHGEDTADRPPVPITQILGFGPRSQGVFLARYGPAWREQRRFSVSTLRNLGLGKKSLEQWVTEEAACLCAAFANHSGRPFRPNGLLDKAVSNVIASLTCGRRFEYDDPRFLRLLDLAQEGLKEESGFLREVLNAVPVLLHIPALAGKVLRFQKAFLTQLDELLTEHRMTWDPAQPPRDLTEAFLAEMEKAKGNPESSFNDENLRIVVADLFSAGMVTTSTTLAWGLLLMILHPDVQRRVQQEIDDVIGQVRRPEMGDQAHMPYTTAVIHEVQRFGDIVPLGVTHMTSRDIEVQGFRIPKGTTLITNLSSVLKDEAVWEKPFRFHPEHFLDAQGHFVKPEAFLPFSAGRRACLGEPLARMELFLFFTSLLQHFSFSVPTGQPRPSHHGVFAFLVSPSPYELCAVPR

| SMILES | IC50 [1] [µM] | also measured |
| --- | --- | --- |
| O=C1c2ccccc2COc2cc(Nc3ccc(Cl)cc3Cl)ccc21 | 3.02 | – |
| Nc1cc(F)ccc1Nc1ccc2c(c1)OCc1ccccc1C2=O | 0.038 | – |
| O=C1c2ccccc2COc2cc(Nc3ccc(F)cc3F)ccc21 | 0.239 | – |
| O=C1c2ccccc2COc2cc(Nc3ccc(Br)cc3Br)ccc21 | > 5 | – |
| Nc1ccccc1Nc1ccc2c(c1)CCc1ccccc1C2=O | – | inhibition at 10 µM [2]: 42%; inhibition at 10 µM [3]: 53%; inhibition at 10 µM [4]: 70% |
| Nc1ccc(Nc2ccc3c(c2)OCc2ccccc2C3=O)c(N)c1 | > 5 | – |
| C[S+]([O-])c1ccc(-c2nc(-c3ccncc3)c(-c3ccc(F)cc3)[nH]2)cc1 (centres undefined) [SB-203580] | – | inhibition at 10 µM [2]: 73%; inhibition at 10 µM [3]: 92%; inhibition at 10 µM [4]: 77% |
| Nc1ccccc1Nc1ccc2c(c1)COc1ccccc1C2=O | 3.06 | – |
| Nc1ccc(Nc2ccc3c(c2)CCc2ccccc2C3=O)cc1 | 1.17 | – |
| Cc1ccccc1C(=O)c1ccc(Nc2ccccc2)cc1Cl | 0.19 | – |
| Nc1ccc(Nc2ccc3c(c2)OCc2ccccc2C3=O)cc1 | > 5 | – |
| Nc1ccccc1Nc1ccc2c(=O)c3ccccc3ccc2c1 | 1.06 | – |
| Nc1ccccc1Nc1ccc2c(c1)SCc1ccccc1C2=O | 0.196 | – |
| Nc1cccc(Nc2ccc3c(c2)OCc2ccccc2C3=O)c1 | 1.22 | – |
| Nc1ccc(Nc2ccc3c(c2)OCc2ccccc2C3=O)c(F)c1 | 1.32 | – |
